Results on 14 compounds are retold here after PubChem BioAssay (NCI).

What all share (experiment): NCI tumour cell line growth inhibition, 48 h
Test [1] deals with DU-145 prostate.
In test [2] the test system is HCT-116 colon.
Test [3] relates to OVCAR-4 ovarian.
The subject of test [4] is OVCAR-8 ovarian.
Test [5] concerns PC-3 prostate.
In test [6] the test system is RXF 393 renal.
Test [7] has as its system SK-MEL-2 melanoma.
Test [8] relates to SN12C renal.
Test [9] relates to SW-620 colon.
For test [10], the system named is UACC-257 melanoma.

Structures are written as SMILES.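 All cell lines were grown in 96-well plates and treated with compound for 48 hours. The concentration for full growth arrest is given as TGI.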

With `O=C(NCCCN(CCCCN(CCCNC(=O)C(F)(F)F)Cc1ccc2ccccc2c1)Cc1ccc2ccccc2c1)C(F)(F)F`, the TGI in test [1], in test [2], in [3], in [4], in [5] and in [6] was over 100 µM throughout. For the same compound, the TGI was over 100 µM in test [7], over 100 µM in test [8], over 100 µM in [9] and 4.58 µM in [10].

`O=C(O)C(SC1=NNC2(C(=O)N1)c1ccccc1-c1ccccc12)SC1=NNC2(C(=O)N1)c1ccccc1-c1ccccc12`: the TGI in [1], in [2], in [3], in [4], in test [5] and in test [6] was over 10 µM each time. Further, the TGI in test [7], in test [8], in test [9] and in [10] was over 10 µM each time.

For `N#CCc1nc(-c2ccccc2)n[nH]1`, the TGI in test [1], in test [2], in [3], in test [4], in [5] and in test [6] was over 100 µM throughout. For the same compound, the TGI in test [7], in test [8], in test [9] and in test [10] was over 100 µM each time.

Consider `N/C(=N\S(=O)(=O)c1c(C(F)(F)F)cccc1C(F)(F)F)Nc1ccc(Cl)cc1`, for which the TGI is over 100 µM in [1]; over 100 µM in test [2]; over 100 µM in test [3]; 78 µM in test [4]; 25.6 µM in test [5]; over 100 µM in test [6]. Also, the TGI in [7] is 29.3 µM; in test [8] it was 78.1 µM; in test [9], over 100 µM; in [10], 47.7 µM.

As to `CCOC(=O)C(Cl)(Cl)/S(=N\S(=O)(=O)c1ccccc1)NC(=O)c1ccccc1` (stereo not given), the TGI in test [1], in test [2], in test [3], in test [4], in [5] and in [6] was over 100 µM in each case. Moreover, the TGI in [7], in [8], in [9] and in test [10] was over 100 µM in each case.

Regarding `Cc1c(N2C(=O)C(Cl)C2c2ccc(Cl)cc2)c(=O)n(-c2ccccc2)n1C` (stereo not given), the TGI was over 100 µM in test [1]; 36 µM in [2]; over 100 µM in [3]; over 100 µM in test [4]; over 100 µM in test [5]; over 100 µM in [6]. In addition, the TGI was over 100 µM in test [7], over 100 µM in test [8], over 100 µM in [9] and 48.1 µM in test [10].

With `NNC1=N/C(=C\c2ccco2)C(Cl)=N1`, the TGI was over 100 µM in [1]; over 100 µM in test [2]; 75.8 µM in [3]; over 100 µM in [4]; over 100 µM in test [5]; over 100 µM in [6]. In addition, the TGI in test [7], in test [8], in test [9] and in [10] was over 100 µM throughout.

Consider `COC(=O)CCc1cc(OC)c2c(c1)[C@H](C(=O)OC)[C@@H](c1ccc(O)c(OC)c1)O2`, for which the TGI in test [1], in test [2], in [3], in test [4], in test [5] and in test [6] was over 100 µM in each case. The TGI in test [7] was 84.6 µM; in test [8] it was over 100 µM; in [9], over 100 µM; in test [10], over 100 µM.

As for `CC(O)CCCOC(c1ccccc1)(c1ccccc1)c1ccccc1` (stereo not given), the TGI in [1] worked out at 30.4 µM; in [2], 26.9 µM; in test [3], 28.1 µM; in test [4] it was 28.2 µM; in [5], 23.7 µM; in test [6], 29.2 µM. Further, the TGI in test [7] was 29.5 µM; in test [8], 30.6 µM; in test [9], 32.3 µM; in test [10], 30.4 µM.

`O=C(O)c1cc(-c2ccc3c(O)c(O)ccc3c2)ccc1O`: the TGI in [1] was over 75 µM; in [2] it was 30.3 µM; in test [3], 27 µM; in test [4], over 75 µM; in [5] it was over 75 µM; in test [6], 47.8 µM. Also, the TGI was over 75 µM in [7], 30.8 µM in [8], 36.8 µM in [9] and over 75 µM in [10].

As for `COc1cc(-c2cc(=O)c3cc4c(=O)cc(-c5cc(OC)c(OC)c(OC)c5)oc4cc3o2)cc(OC)c1OC`, the TGI in test [1] was over 100 µM; in [2], over 100 µM; in test [3], over 100 µM; in [4] it was over 100 µM; in test [5], over 100 µM; in test [6] it was 26.4 µM. The TGI in [7] was 41.3 µM; in [8], over 100 µM; in [9], over 100 µM; in test [10], over 100 µM.

For the compound `CSc1c(C#N)c(N)n(-c2ccc(C)cc2)c(=O)c1C#N`, the TGI in [1], in test [2], in test [3], in test [4], in test [5] and in test [6] was over 100 µM in each case. For the same compound, the TGI in test [7], in test [8], in [9] and in test [10] was over 100 µM in each case.

As to `O=C(Oc1cc(=O)c(OC(=O)c2ccccc2)co1)c1ccccc1`, the TGI in [1], in test [2], in test [3], in test [4], in test [5] and in test [6] was over 100 µM each time. Further, the TGI in test [7], in [8], in test [9] and in [10] was over 100 µM in each case.

Turning to `S=c1[nH]c2ccc(Br)cc2c(=S)s1`, the TGI in [1] is over 100 µM; in test [2], 52.1 µM; in test [3] it was 38.6 µM; in [4], over 100 µM; in test [5] it was 49.8 µM; in test [6] it was over 100 µM. The TGI in [7] was 61.8 µM; in test [8], 46.5 µM; in test [9], over 100 µM; in test [10], 69.5 µM.
